Assays:
AR = molecular target: T1, AR (Homo sapiens, UniProt P10275, T878A); test: AR transcriptional activity, LNCaP-ARR2PB-eGFP reporter cells; type: cell-based; conditions: LNCaP-ARR2PB-eGFP cells, 5 nM DHT, 72 hours; read-out: IC50 AR transcriptional activities
T1 construct: into the androgen-dependent PCa cells (LNCaP); endogenous in cells; host or cells: LNCaP-ARR2PB-eGFP
T1 sequence (P10275 1-920 T878A): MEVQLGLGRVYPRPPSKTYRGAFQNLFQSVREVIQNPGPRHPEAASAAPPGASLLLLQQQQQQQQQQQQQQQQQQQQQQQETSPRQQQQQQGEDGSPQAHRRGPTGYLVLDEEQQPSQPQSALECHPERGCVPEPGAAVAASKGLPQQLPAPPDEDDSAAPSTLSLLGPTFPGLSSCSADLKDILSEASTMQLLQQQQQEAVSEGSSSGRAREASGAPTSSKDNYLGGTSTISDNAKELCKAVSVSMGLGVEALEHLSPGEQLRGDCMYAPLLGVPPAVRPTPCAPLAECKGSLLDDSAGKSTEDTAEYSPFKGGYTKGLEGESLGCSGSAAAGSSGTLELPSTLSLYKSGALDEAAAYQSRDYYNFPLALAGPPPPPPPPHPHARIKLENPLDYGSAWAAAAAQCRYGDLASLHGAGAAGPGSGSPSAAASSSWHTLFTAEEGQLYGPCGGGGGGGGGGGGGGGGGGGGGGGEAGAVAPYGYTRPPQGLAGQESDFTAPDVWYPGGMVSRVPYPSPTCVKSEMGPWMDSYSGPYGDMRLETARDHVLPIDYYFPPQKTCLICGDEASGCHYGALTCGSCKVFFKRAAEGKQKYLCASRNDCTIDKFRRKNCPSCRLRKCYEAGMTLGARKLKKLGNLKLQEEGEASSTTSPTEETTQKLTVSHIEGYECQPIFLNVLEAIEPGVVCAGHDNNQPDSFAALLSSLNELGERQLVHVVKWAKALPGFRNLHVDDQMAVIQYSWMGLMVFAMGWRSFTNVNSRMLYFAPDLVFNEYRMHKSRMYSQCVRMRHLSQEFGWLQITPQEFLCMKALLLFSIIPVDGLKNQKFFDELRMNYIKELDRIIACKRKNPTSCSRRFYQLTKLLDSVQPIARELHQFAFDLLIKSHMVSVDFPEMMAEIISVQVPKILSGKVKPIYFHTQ
Description: Detection principles: We conducted a stable transfection of promoter ARR2PB known for its strong AR responsiveness, into the androgen-dependent PCa cells (LNCaP). The expression of enhanced green fluorescent protein (eGFP) is depending on the degree of activation of AR. Therefore, LNCaP-ARR2PB-eGFP cell line could quantitatively determine the AR antagonistic activities of the compounds by evaluating the expression of eGFP.

AR-LBD protein = molecular target: T2, AR-LBD protein (Homo sapiens, UniProt P10275); test: Biolayer interferometry (BLI) direct interaction; type: binding; conditions: A-1 2.06-500 μM, biotinylated AR-LBD
T2 construct: The biotinylated AR-LBD protein was dissolved in the buffer
T2 sequence (P10275 669-900 limits assumed): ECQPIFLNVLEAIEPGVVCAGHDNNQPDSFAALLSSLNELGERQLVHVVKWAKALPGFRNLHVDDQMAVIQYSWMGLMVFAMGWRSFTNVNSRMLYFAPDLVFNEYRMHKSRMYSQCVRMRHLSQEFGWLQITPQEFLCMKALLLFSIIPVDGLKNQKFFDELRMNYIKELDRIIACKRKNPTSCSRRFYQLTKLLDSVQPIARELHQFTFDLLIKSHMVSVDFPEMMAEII
Experimental: Detection principles: The BLI technique can detect the interactions by monitoring the change of the interference spectrum in the sensor surface. BLI can quantitatively determine the binding and dissociation processes of a ligand to the target loaded sensor, by analyzing changes in the interference spectrum. Therefore, the direct interaction between ligand and target protein can be quantitatively detected.
Methods: The biotinylated AR-LBD protein was dissolved in the buffer of phosphate-buffered saline with 1% dimethyl sulfoxide. 200 μL of AR-LBD protein in the buffer was loaded onto sensors and equilibrated for 300 seconds. The kinetics of association between AR-LBD and A-1 were determined by soaking the AR-LBD loaded sensors into wells containing different concentrations of A-1 for 300 seconds, followed by soaking the sensors in the buffer for 180 seconds allow for dissociation. Finally, the ForteBio data analysis software was applied to calculate the kinetic binding constants (Ka, Kd, KD).

CC(=O)Cc1nsc(NC(=O)c2cc(-c3cccc(C(F)(F)F)c3)oc2C)n1 [Compound A-1, 2-Methyl-N-(3-(2-oxopropyl)-1,2,4-thiadiazol-5-yl)-5-(3-(trifluoromethyl)phenyl)furan-3-carboxamide]
IC50 (AR): 0.03 µM | Kd (AR-LBD protein): 143 µM

— patent US20240376091A1, “THIADIAZOLEAMIDE DERIVATIVES AND THEIR APPLICATIONS” (ZHEJIANG UNIVERSITY, priority 2021, published 2024)
